Values quoted from earlier work as cited in patent US20110053172A1, “ONE STEP NANOSENSOR FOR SINGLE AND MULTIDRUG RESISTANCE IN ACUTE CORONARY SYNDROME (ACS)” (UNIVERSITY OF CALCUTTA, priority 2009, published 2011).

Details: in comparison to aspirin; P=0.043

## COC(=O)[C@H](c1ccccc1Cl)N1CCc2sccc2C1 [clopidogrel]
  relative risk reduction in stroke, myocardial infarction, or ischaemic death: 8.7%
